Assay results as given in a melting point compilation (Tetko et al.; mined from patent text by program, amines drawn as free bases though some values may be those of a salt).

Compound | melting point [°C]
CC(O)(C=Cc1ccc(S(=O)(=O)N2CCCC2)cc1)C(F)(F)F (stereo not given) | 119 to 121
CC1(C)Oc2ccc(C#N)cc2[C@@H](NC(=O)Nc2ccccc2)[C@@H]1O (relative stereo) | 226 to 227
Cc1ccccc1OS(=O)(=O)c1ccc(N2CCCNC2=O)cc1 | 161 to 163
CCN1c2ncc(CCc3ccncc3)cc2C(=O)N(C)c2ccc(F)nc21 | 109 to 111
NC(=N[N+](=O)[O-])NCCSCc1csc(NC(N)=NCC(F)(F)Cl)n1 | 112 to 116
COc1ccc(C2Cc3cc(C(F)(F)F)ccc3NC(=O)C2COS(=O)(=O)c2ccc(C)cc2)cc1 (stereo not given) | 170 to 172
CC(=O)c1ccc(Cc2ccc(F)cc2)o1 | 27 to 29
CC(C)=CC(=O)N(C)c1cccc(Br)c1 | 92 to 94
COc1cc(OCC(CO)CO)c(C=CC(=O)c2ccc(S(=O)(=O)Nc3cc(C)on3)cc2)cc1-c1cccs1 | 165 to 166
COC(=O)COc1nc(Cl)c(Cl)cc1Cl | 99 to 103
CC(=O)OC1CSC(Oc2ccc(C(=O)NCc3ccccc3)nc2)C(OC(C)=O)C1OC(C)=O (stereo not given) | 177 to 178
Cc1cc(C)c2c(c1)c(-c1ccccc1Cl)c(NC(=O)Nc1c(C)cccc1C(C)C)c(=O)n2C | 203 to 204
CC1=CC(Cl)C(Cl)(c2cc(C)no2)C=C1C(=O)O (stereo not given) | 212 to 213
O=C(Nc1cc2ncc(CN3CCCC3)cc2cc1Cl)c1ccc(-c2ccc(Cl)s2)cc1 | 185
CCOC(=O)Cc1nc(-c2ccc(OC)cc2)oc1-c1ccco1 | 64 to 66
CN1C2CCC1CC(c1c[nH]c3cc(F)ccc13)C2 (stereo not given) | 168 to 169
c1cnc(NCCN2CCC(=C3c4sccc4CCn4ccnc43)CC2)nc1 | 173
CCNC1=NS(=O)(=O)c2sc(Cl)cc2N1 | 271 to 274
CCCCN1CCC(NS(=O)(=O)c2ccc(NC(C)=O)cc2)CC1 | 174 to 175
CC1(C)CCC(C)(C)c2cc(C(O)CCC(=O)O)ccc21 (stereo not given) | 10
N#Cc1cc(-c2cccc(F)c2)c[nH]c1=O | 261 to 266
O=c1[nH]c2ccc(C(O)CCN3CCC(Cc4ccccc4)CC3)cc2[nH]1 (stereo not given) | 240 to 244

Compound | melting point [°C]
CCOC(=O)CCC(=O)c1ccc(CCCCN2CCN(c3cccc(C)c3)CC2)cc1 | 62 to 63
CCOC(=O)c1cn(CCF)c2nc(SCC)c(F)cc2c1=O | 271 to 273
CC1Sc2c(C(=O)O)c(=O)c3cc(F)c(N4CCNCC4)cc3n21 (stereo not given) | 225 to 227
COc1ccc(-c2csc(Nc3ncccc3C)n2)cc1OC | 264 to 266
CN1CCN(c2cc(Cl)cc3c2c(=O)n(Cc2cccc(Cl)c2)c(=O)n3Cc2ccccc2)CC1 | 165 to 169
CCCCNC(=O)Nc1ccc(OC)cc1C(=O)NCC1CCN(C(c2ccccc2)c2ccccc2)CC1 | 206 to 208
Cc1cccc2c(C(CO)=C3SC(=O)NC3=O)cccc12 | 160 to 161
COc1ccc([PH](=O)c2ccc(OC)cc2)cc1 | 126
N#CCc1ccc(C(=O)c2ccc(Cl)cc2)n1Cc1ccccc1 | 104 to 106
Cn1c(COc2cccc([N+](=O)[O-])c2)nc2ccccc21 | 183 to 185
CCOc1ccc2c(c1)C(C)(c1ccccc1Cl)C(=O)N2S(=O)(=O)c1ccc(C(=O)NC(C)(C)CF)cc1 (stereo not given) | 182
CC(=O)CCCSc1cc(C(C)(C)C)c(O)c(C(C)(C)C)c1 | 65 to 67
O=C(O)Cc1c(C(=O)c2ccc(Cl)cc2Cl)[nH]c2cc(Cl)ccc12 | 190 to 192
C/C=C/c1cc(OC)c2oc(-c3ccc(O)c(OC)c3)c(C)c2c1 | 132 to 133
CCCCC(C)C(O)C=Cc1ccc(OCc2ccccc2)c(OCc2ccccc2)c1 (stereo not given) | 77 to 78
CC(=O)c1ncn2c1CN=C(c1ccccc1Cl)c1cc(Cl)ccc1-2 | 214 to 216
Cc1c2c(c(Br)n1C)NC(=O)CN=C2c1ccccc1 | 200 to 202
CCOC(=O)Cc1ccc(NC(=O)C(COc2ccccc2Cl)NS(=O)(=O)c2ccc(Cl)cc2)cc1 (racemic) | 141 to 142
NC(=O)CCc1ccncc1 | 164 to 166
CCC#COc1ccc(S(=O)(=O)NC(CSCc2ccccc2)C(=O)NO)cc1 (stereo not given) | 137 to 138
CCCCS(=O)(=O)N1C(SCc2ccc(OC)cc2)=NC(C)(c2cccc([N+](=O)[O-])c2)C(C)(C(=O)OCC)C1c1cccc([N+](=O)[O-])c1 (stereo not given) | 66 to 68
CCN(CC)CC(=O)Nc1cccc2c1C(=O)c1c(NC(=O)CN(CC)CC)cccc1C2=O | 228 to 229

Further lines, results first:

melting point [°C] | Compound
142 to 144 | O=C(CCS(=O)(=O)CCOCCc1ccccc1)NCCc1ccc(O)c2[nH]c(=O)sc12
279 to 281 | COc1c(O)c(OC)c2c(=O)cc(-c3ccc(O)c(O)c3)oc2c1OC
251 to 254 | CCOC(=O)c1cn(C)c2c(=O)c3ccccc3oc2c1=O
154 to 156 | COC(=O)c1ccc(NC(=O)C(=Cc2ccccc2)C(=O)C(C)C)cc1
131 to 133 | CCCCOP(=O)(CCCCC1(C(=O)NCCC)c2ccccc2-c2cccnc21)OCCCC (stereo not given)
> 220 | O=C1C[C@H]2CCN(Cc3ccccc3)C[C@H]2c2ccc(F)cc21 (relative stereo)
61 to 62 | O=Cc1cccnc1Oc1ccc(F)cc1
219 to 220 | c1ccc2c(c1)Cc1c(-c3ccsc3)n[nH]c1-2
134 to 135 | CC1=C(Cc2ccc(Cl)cc2)C(=O)C2C=CC=CC2C1=O (stereo not given)
82 to 84 | CCOC(=O)C=Cc1cc(Br)cc(C(O)c2ccc(F)cc2)c1 (stereo not given)
54 to 56 | COc1cccc(CCOc2ccc(C(=O)N/C(=C\c3ccc(Cl)cc3)C(=O)NCCO)cc2)c1
166 | CCOC(=O)c1c(O)c2c(C)csc2n(Cc2ccccc2)c1=O
225 to 227 | O=C(O)COc1cccc2c1CCC(n1nc(-c3c(-c4ccccc4)nn4ccccc34)ccc1=O)C2=O (stereo not given)
96 | CC(C)(C)c1c(Cl)nc(OCc2ccccc2)nc1OCc1ccccc1
73 to 75 | CCCCCNc1ncnc2c(C(C)C)n[nH]c12
50 to 52 | CCOC(=O)NC(=S)NCC(C)C
214 to 216 | O=C1CCc2c(-c3ccncc3)sc(-c3cccnc3)c21
182 to 184 | CCOC(=O)C1Cc2ccc(Cl)cc2NC1=O (stereo not given)
97 to 100 | CS(=O)(=O)c1ccc(-c2cnn(C3Cc4ccccc4C3)c(=O)c2-c2ccc(F)cc2)cc1

melting point [°C] | Compound
65 to 67 | Cc1ccc2c(c1)C(=O)C(=O)N2CCN(C(C)C)C(C)C
175 to 176 | CCc1cc(C=Cc2ccccc2O)on1
142 to 143 | Cc1cccc(-n2nccc2-c2nn(-c3cccc(C(F)(F)F)c3)ccc2=O)c1
193 to 194 | COC(=O)C(C#N)=CC=Cc1cc([N+](=O)[O-])ccc1Cl
121 to 123 | CCCCn1nc(CCc2ccccc2)nc1Cc1ccc(-c2ccccc2-c2nnn[nH]2)nc1
64 to 67 | O=c1oc(-c2ccccc2)ns1
74 to 76 | CC(C)(C)OC(=O)N[C@@H](Cc1ccnc(C#N)c1)C(=O)OCc1ccccc1
151 to 154 | CNN1CSC(=Cc2cc(C(C)(C)C)c(O)c(C(C)(C)C)c2)C1=O
44 to 45 | CC(C)(C)OC(=O)NC(C)(CO)C(=O)OC(C)(C)C (stereo not given)
208 to 209 | CCCCS(=O)(=O)Nc1ccc(Oc2cccc3c(C)ccnc23)cc1
172 to 173 | Cc1cc(NC(=O)OC(C)(C)C)c(N)cc1C#Cc1ccccc1
187 to 188 | C=CCNC(=O)NS(=O)(=O)c1ccccc1OC(Cl)=CCl
185 to 186 | NS(=O)(=O)c1cc(C(=O)O)cc([N+](=O)[O-])c1NC1CCCCC1
72 to 74 | N#Cc1ccc(CCCN)cc1
310 to 313 | N=C(N)c1ccc(-n2ncn(-c3ccc(CCC(=O)O)cc3)c2=O)cc1
121 to 124 | Cn1ncnc1COCc1cccc(-n2cnc3cc(C(F)(F)F)ccc32)c1
90 to 91 | C(=C\c1nc(COc2ccc(CCCCCCn3cncn3)cc2)co1)/c1ccccc1
154 to 155 | Clc1ccc(Oc2cncc3sc(C4=NCCN4)cc23)cc1
198 to 200 | CC(C)Oc1nc(-c2ccc(=O)n(C(C)C)n2)c(-c2ccccc2)nc1N

melting point [°C] | Compound
154 to 155 | CNc1nc(-c2ccc(OCCCn3ccnc3)cc2)no1
184 to 186 | COCCc1nc2c(N)nc3ccc(CCC(=O)N(C)C)cc3c2n1CCCN1CCCC1=O
69.5 to 70.5 | CCOC(=O)c1c(C)cc2cnc(-c3ccccc3Cl)nc2c1C
126 to 128 | O=C(CCCCN1CCC(Cc2ccccc2)CC1)c1ccc2c(c1)-c1ccc(C(=O)CCCCN3CCC(Cc4ccccc4)CC3)c3cccc-2c13
172 to 174 | Nc1ccc2c(c1)C(=O)NC(C(Cl)(Cl)Cl)O2 (stereo not given)
100 to 101 | CCCCCCc1sc(C(N)=O)c2c1-c1c(cnn1C)CC2
143 to 174 | c1ccc(-c2cccc3c4c([nH]c23)CCNCC4)cc1
146 to 148 | O=C1SCCN1Cc1ccc([N+](=O)[O-])cc1
78 to 81 | COC(=O)CCCCCCNC(=O)C(CO)NS(=O)(=O)c1ccc(Cl)cc1 (racemic)
300 to 303 | O=C(CCl)Nc1ccc2[nH]c(=O)c3ccccc3c2c1
231 to 233 | O=c1c2cc(F)c(N3CCCC3)nc2n(-c2ccc(C(F)(F)F)cc2)c(=O)n1OCc1ccccc1
88 to 90 | COc1ccc(C(=O)c2ccc(OC)cc2F)c(C)c1
124 to 127 | CC(=O)Nc1ccc(OCC(O)CCCl)cc1 (stereo not given)
112 to 114 | Fc1cccc(Cl)c1-c1nn(-c2ccccc2Cl)c(=S)o1
64 to 68 | COC(OC)c1cc(=O)c2ccccc2o1
199 to 200 | CCCCOc1c(N(C)C(=O)OC(C)(C)C)n(CC(C)C)c(=O)c2ccc(-n3cnnn3)cc12
80 to 83 | COc1ccccc1CC(c1sccc1C)N(C)C=O (stereo not given)
177 to 178 | COc1cc(C=C(C=O)C(C=O)=Cc2ccc(O)c(OC)c2)ccc1O
